PubChem BioAssay AID493250 (Broad Institute, 2011)
Calls of active or inactive are those of the source.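 The calls were made as follows: active = signal decrease with fitted half-maximal dose at or below ten times the highest valid tested dose; inconclusive = poor fit, or flat fit at 30 to 70% inhibition; inactive = the rest.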

These molecules were tested against Zinc finger protein mex-5 (Caenorhabditis elegans) (UniProt Q9XUB2) (assay: MEX-5 zinc finger-RNA interaction blockers – biochemical, fluorescence polarization, C. elegans, cherry-picked, round 3, dose response (AID 493250)). Settings: purified MEX-5-MBP, FITC-TCR2 RNA fluorescence polarization.
Zinc finger protein mex-5 (Caenorhabditis elegans), sequence (Q9XUB2 whole entry, looked up): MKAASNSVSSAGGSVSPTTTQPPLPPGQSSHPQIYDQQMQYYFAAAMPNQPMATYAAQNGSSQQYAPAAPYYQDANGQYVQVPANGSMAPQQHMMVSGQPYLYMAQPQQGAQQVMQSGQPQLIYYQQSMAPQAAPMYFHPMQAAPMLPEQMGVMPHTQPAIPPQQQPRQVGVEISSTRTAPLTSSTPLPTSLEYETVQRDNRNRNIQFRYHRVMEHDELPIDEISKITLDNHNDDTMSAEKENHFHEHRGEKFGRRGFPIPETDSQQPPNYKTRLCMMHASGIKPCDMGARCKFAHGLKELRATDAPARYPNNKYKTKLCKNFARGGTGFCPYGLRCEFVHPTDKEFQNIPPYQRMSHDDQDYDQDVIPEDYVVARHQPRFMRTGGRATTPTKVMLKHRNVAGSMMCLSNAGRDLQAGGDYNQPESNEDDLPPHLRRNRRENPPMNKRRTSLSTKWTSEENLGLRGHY

| SMILES | AC50 |
| --- | --- |
| CCN1/C(=C/C=C/c2oc3ccc(-c4ccccc4)cc3[n+]2CC)Oc2ccc(-c3ccccc3)cc21 | 0.338 µM |
| COC(=O)C1=COC(C)C2CN3CCc4c([nH]c5ccccc45)C3CC12 (stereo not drawn) | 4.21 µM |
| O=C1C(Cl)=C(NC2CCCCC2)C(=O)N1c1ccc(Cl)cc1 | > 10 µM (inactive) |
| CCN(CC)c1ccc(/C=C(/C#N)c2nc3ccc(C)cc3[nH]2)c(OC(C)C)c1 | 1.16 µM |
| C=CCn1c(=O)[nH]c2nc3cc(N=CN(C)C)c(C)cc3nc2c1=O | 5.73 µM |
| Cc1cc2c(C)nc(N/N=C/c3ccc([N+](=O)[O-])cc3)nc2o1 | 6.83 µM |
| Cc1ccc(C(=O)O)cc1-c1ccc(/C=C2\SC(=O)N(CC(=O)Nc3ccccc3)C2=O)o1 | 2.74 µM |

Same assay, conditions: purified MEX-5-MBP, FITC-TCR2 RNA fluorescence polarization; at 10 µM (top of the series)

| SMILES | activity change, negative = inhibition |
| --- | --- |
| CCc1nc2ccccc2c(=O)n1/N=C/c1ccc(OC)cc1 | inactive |
| Cc1ccc(NC(=O)CCC(=O)NNC(=S)Nc2ccccc2)c(C)c1 | inactive |
| COc1cc(/C=N/NC(=O)CNS(=O)(=O)c2ccc(C)cc2)cc(OC)c1OC | inactive |
| CC[N+](C)(CC)CCCOC(=O)C(O)(c1ccccc1)C1CCCCC1 (stereo not drawn) | inactive |
| Nc1nonc1C(=O)N/N=C/c1cc(Br)ccc1O | inactive |
| O=[N+]([O-])c1ccc(C2=CSC3=NCCN23)cc1 | inactive |
| COc1ccccc1N=Nc1c(C)[nH][nH]c1=O | inactive |
| N#Cc1cc2c(=O)n3ccccc3nc2n(CCCN2CCOCC2)c1=O | inactive |
| CCN(CC)c1ccc(N2C(=O)c3ccccc3C2=O)cc1 | inactive |
| Brc1ccc(-c2cn3nc4c(nc3n2)CCCC4)cc1 | inactive |
| COc1ccc(CCn2c(=N)c(C(=O)NCC3CCCO3)cc3c(=O)n4ccccc4nc32)cc1 (stereo not drawn) | inactive |
| CCc1cc(-c2n[nH]c(C)c2-c2nc3ccccc3s2)c(O)cc1OCC(=O)NN | inactive |
| O=C(O)Cn1c(O)c(C2=c3ccccc3=NC2=O)sc1=O | inactive |
| NC1=C([N+](=O)[O-])C(c2ccc3c(c2)OCO3)C2=C(CCCC2=O)O1 (stereo not drawn) | inactive |
| O=C(NC1CCSc2ccccc21)c1ccc([N+](=O)[O-])cc1 (stereo not drawn) | inactive |
| COc1c(OC2OC(C(=O)O)C(O)C(O)C2O)cc(O)c2c(=O)cc(-c3ccccc3)oc12 (stereo not drawn) | inactive |
| CCCC(=O)Nc1ccc(NC(=O)c2cccs2)cn1 | inactive |
| c1cncc(C2CC(c3cccs3)n3ncnc3N2)c1 (stereo not drawn) | inactive |
| CSc1ccc(/C=C/C(=O)c2ccc(NC(C)=O)cc2)cc1 | inactive |
| CCOc1ccccc1N=NC1C(=O)N(C(N)=S)N=C1C (stereo not drawn) | inactive |
| Cc1ccc2c(c1Cl)NC(C(=O)O)C1CC(Sc3ccccc3[N+](=O)[O-])C(Cl)C21 (stereo not drawn) | inactive |

| SMILES | activity change, negative = inhibition |
| --- | --- |
| N#C/C(=N\Nc1cccc(C(F)(F)F)c1)C(=O)c1ccsc1 | inactive |
| CCOC(=O)[C@]1(C#N)[C@@H]2C=CC(C(N)=O)=CN2[C@@H](C(N)=O)[C@@H]1c1ccc(F)cc1 | inactive |
| CC1=C(C(=O)OCc2ccccc2)C(c2ccc(N(C)C)cc2)NC(=O)N1 (stereo not drawn) | inactive |
| Cc1ccc2c(c1)-c1ccccc1S(=O)(=O)N2 | inactive |
| Cc1cccc(C(=O)NNc2ncnc3c2cnn3C)c1 | inactive |
| O=C1OC(C(=O)O)Cc2ccccc21 (stereo not drawn) | inactive |
| CCn1c(C)nc2c1C(=O)c1ccccc1C2=O | inactive |
| CCCCN(C(=O)c1ccc([N+](=O)[O-])o1)c1c(N)n(CCCC)c(=O)[nH]c1=O | inactive |
| Cc1nc2c3ccccc3nc(NNC(=O)CCC(=O)N3CCC(C)CC3)n2n1 | inactive |
| O=C(NNC(=O)c1ccco1)c1csc(N2CCOCC2)n1 | inactive |
| O=C(O)CCC(=O)NNc1ncnc2ccccc12 | inactive |
| CC(=O)Nc1ccc(-c2csc(Nc3cccc(C)n3)n2)cc1 | inactive |
| COc1ccccc1N1C(=O)C2C(C(=O)c3ccccc3)=NN(c3ccccc3OC)C2C1=O (stereo not drawn) | inactive |
| COc1ccc2cc3c(N)c(C(=O)NCc4ccco4)sc3nc2c1 | inactive |
| O=C(Nc1ccc(OCc2ccccc2)cc1)Nc1cccnc1 | inactive |
| CN(C)CC(O)COc1ccc(C(C)(C)c2ccc(OCC(O)CN(C)C)cc2)cc1 (stereo not drawn) | inactive |
| Cc1cc(=O)n2[nH]c(N)c(N=Nc3ccccc3F)c2n1 | inactive |
| COCCNc1ncnc2nc[nH]c12 | inactive |
| CC(=O)c1cc(NC(=O)c2ccc([N+](=O)[O-])cc2)c(=O)oc1C | inactive |
| CCOc1ccc(N2C(=O)C(Cl)=C(Nc3ccccc3O)C2=O)cc1 | inactive |
